Assay results published in patent publication US20070191493A1, “Use of n-alkanols as activators of the cftr channel” (priority 2003, published 2007).

Molecular target: CFTR channel (Homo sapiens, UniProt P13569)
Test: whole-cell patch-clamp in CHO-CFTR(+) cells
Assay type: cell-based
Design: expressed in transfected cells; host or cells: CHO (Chinese hamster ovary) cells, CHO-CFTR(+)
Source text: The patch-clamp technique consists in applying a glass pipette or a glass microelectrode to the surface of the cell. By applying slight touch, it is possible to cause the membrane to adhere to the glass. A small piece of membrane (patch) is thus isolated at the end of the pipette. This is the principle of patch-clamp (O. P. Hamill et al., Pflügers Arch., 1981, 391, 85-100; R. Penner, A Practical Guide to Patch Clamping, 1995, In Single Channel Recording, 2nd edition (Eds. B. Sakmann et al.) Plenum Press, New York, 3-30). To do this, the patch-clamp pipette must have a tip of the order of 1 μm in diameter and a resistance of the order of 1-5 MΩ. The resistance of a pipette or of a microelectrode makes it possible to assess the fineness of the tip: the greater the resistance, the finer the tip or the more the electrode is blocked. […] Interactions between the membrane and the glass will form, aided by a slight suction or negative pressure in the pipette. The quality of this interaction (or sealing) is also assessed by measuring the resistance between the glass and the membrane. To measure overall currents in the whole cell configuration, a sealing resistance of 1 GΩ is sufficient.
More specifically, culture dishes (cell support) are placed in an experimentation cell (volume 1 ml) on the platform of an inverted microscope (Nikon) equipped with phase-contrast lighting. The whole-cell configuration is used for recording the cell currents (Hamill et al., 1981). The experiments are carried out at ambient temperature (20-22° C.). The currents are amplified with an Axopatch 200B amplifier (Axon Instrument Ltd) having a 2-5 kHz low-pass filter (Bessel 6-pole filter), and recorded on the hard disk of a PC after digitization at 10-25 kHz. The pipettes are produced from glass tubes 1 mm in diameter (Clark Electromedical Instrument) in four steps with a horizontal drawing device (Bruwn Flaming 97, CA).
The pipettes, filled with an intracellular solution containing, in mM: 60 KCl; 80 NMDG ([…]); 10 HEPES; 5 EGTA; 1 CaCl2; 4 MgATP; 0.2 Na3GTP; pH 7.4, titrated with KOH), having a resistance of 5 MΩ. The potentials are expressed as the difference between the potential of the patch electrode and that of the bath. In the whole-cell configuration, they represent the membrane potential of the cell. The junction potentials that form between the recording electrode and the extracellular medium are eliminated before the contact of the electrode with the cell. […] The current-voltage relationships in the stationary state are determined using slow voltage ramps (20 mV/.s) under an imposed voltage condition. […]

Chain of CFTR channel (P13569 whole entry): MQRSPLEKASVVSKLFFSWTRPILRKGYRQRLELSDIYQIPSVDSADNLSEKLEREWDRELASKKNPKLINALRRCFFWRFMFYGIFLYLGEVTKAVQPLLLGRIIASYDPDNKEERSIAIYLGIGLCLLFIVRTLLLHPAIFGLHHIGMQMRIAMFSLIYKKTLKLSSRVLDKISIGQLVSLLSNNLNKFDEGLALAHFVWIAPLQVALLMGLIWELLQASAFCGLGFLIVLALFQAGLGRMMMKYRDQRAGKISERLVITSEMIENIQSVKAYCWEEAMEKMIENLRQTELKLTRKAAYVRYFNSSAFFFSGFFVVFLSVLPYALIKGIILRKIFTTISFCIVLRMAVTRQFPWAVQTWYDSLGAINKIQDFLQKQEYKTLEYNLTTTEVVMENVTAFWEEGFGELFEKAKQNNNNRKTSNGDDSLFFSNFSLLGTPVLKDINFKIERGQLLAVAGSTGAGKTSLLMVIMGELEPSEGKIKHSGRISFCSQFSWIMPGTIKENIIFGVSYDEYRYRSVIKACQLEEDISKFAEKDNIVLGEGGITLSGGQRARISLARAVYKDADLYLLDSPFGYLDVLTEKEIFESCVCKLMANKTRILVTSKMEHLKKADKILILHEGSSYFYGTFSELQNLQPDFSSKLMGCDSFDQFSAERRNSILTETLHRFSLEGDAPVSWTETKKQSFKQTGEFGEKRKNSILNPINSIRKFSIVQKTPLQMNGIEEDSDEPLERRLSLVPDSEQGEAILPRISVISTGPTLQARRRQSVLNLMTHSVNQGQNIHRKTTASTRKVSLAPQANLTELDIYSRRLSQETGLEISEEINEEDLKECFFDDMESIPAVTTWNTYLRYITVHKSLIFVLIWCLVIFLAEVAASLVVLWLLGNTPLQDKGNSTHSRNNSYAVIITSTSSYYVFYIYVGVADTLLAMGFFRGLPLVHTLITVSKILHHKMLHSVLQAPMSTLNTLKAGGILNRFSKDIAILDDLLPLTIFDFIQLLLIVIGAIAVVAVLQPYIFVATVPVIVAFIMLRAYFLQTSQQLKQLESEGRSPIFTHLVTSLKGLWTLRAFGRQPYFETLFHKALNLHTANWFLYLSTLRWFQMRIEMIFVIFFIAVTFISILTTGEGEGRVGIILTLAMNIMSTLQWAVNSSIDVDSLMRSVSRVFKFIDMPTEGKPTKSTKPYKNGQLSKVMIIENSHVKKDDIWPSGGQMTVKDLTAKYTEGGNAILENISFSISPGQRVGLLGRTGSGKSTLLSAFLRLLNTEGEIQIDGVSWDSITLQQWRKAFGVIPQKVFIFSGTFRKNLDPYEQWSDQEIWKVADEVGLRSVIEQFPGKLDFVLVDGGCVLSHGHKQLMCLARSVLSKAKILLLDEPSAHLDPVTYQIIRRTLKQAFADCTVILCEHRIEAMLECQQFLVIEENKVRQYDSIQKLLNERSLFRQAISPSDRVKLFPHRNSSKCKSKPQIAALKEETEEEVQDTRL

- activation of the CFTR channel by patch-clamp, in words (octan-1-ol alone 1 mM, without FSK): full activation
- reversion potential of the induced current (whole-cell, FSK- or octan-1-ol-induced current): 1±0.6 mV
- increase in membrane conductance compared with the control (whole-cell, FSK 1 μM, octan-1-ol 1 mM): approximately 10 fold
Structure (SMILES): CCCCCCCCO [octan-1-ol]
